Where only a bound is given, the exact number is not on record here.

Broadly, the GI50 is the concentration giving 50% growth inhibition. High values mean less potent growth inhibition, low ones more potent growth inhibition.

The test system of assay [1] is Phospho-ERK1/2 in DLD1 cells. Briefly: Phospho-ERK1/2 expression inhibition in DLD1 cells. Format: cell-based. The settings on record: Homo sapiens, DLD-1, 4 hours, read-out: DLD1 pERK IC50. In a few lines:
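DLD1 cells (15,000/well) were plated overnight, then exposed to compounds for 4 h at 37 °C. Cells were formaldehyde-fixed and methanol-permeabilized. Phospho-ERK1/2 was detected in-cell with rabbit anti-phospho-ERK1/2 and an IRDye 800CW secondary antibody, imaged on a LI-COR Odyssey.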

The next assay concerns K562 cells. The experiment in a line: Cell growth inhibition of K562 cells (CellTiter-Glo). It counts as cell-based. The settings on record: Homo sapiens, 120 h, 5 days.
The target in another assay is SOS1/KRAS-G12D (Homo sapiens (Human), UniProt Q07889). The experiment in a line: SOS1/KRAS-G12D binding inhibition assay (AlphaScreen). As to conditions: GST-SOS1 and 6*His KRAS-G12D, read-out: KrasG12D/SOS1 binding IC50. In a few lines:
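GST-SOS1 (5 nM) pre-incubated 30 min with His6-KRAS-G12D (50 nM) in HEPES pH 7.4, NaCl, DTT, MgCl2, Tween-20, BSA; compound in 2% DMSO then added for 30 min at 4° C. GSH donor and Ni-NTA acceptor AlphaScreen beads, 2 h at 4° C; background-corrected % inhibition versus DMSO, IC50 by variable-slope nonlinear regression.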
(Alpha assays give light when donor and acceptor beads are brought close together.)

Chain of SOS1/KRAS-G12D (Q07889 564-1049 limits assumed): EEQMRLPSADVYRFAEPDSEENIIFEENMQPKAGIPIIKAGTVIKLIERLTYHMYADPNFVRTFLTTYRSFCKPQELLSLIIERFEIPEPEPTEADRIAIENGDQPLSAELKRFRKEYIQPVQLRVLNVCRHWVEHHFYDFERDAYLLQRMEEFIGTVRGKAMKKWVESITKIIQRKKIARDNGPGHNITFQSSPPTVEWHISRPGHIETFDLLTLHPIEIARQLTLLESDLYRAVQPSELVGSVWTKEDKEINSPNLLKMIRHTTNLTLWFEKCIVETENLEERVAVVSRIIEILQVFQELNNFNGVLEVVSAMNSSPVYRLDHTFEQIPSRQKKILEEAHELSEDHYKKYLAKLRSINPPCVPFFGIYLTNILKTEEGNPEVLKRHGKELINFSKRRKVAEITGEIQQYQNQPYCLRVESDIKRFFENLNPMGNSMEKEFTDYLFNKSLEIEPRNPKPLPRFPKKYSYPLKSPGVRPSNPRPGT

Consider `CO[C@@]1(c2ccc3nccc(N[C@H](C)c4cccc(C(F)F)c4F)c3c2)CCN(C(C)=O)C1` [Compound 75, 1-((R)-3-(4-(((R)-1-(3-(difluoromethyl)-2-fluorophenyl)ethyl)amino)quinolin-6-yl)-3-methoxypyrrolidin-1-yl)ethan-1-one], for which the results for the IC50 (in assay [1]; on SOS1/KRAS-G12D) were above 0.5 µM and at most 0.01 µM, respectively. In the assay with K562 cells, this compound showed a GI50 of 0.1 to 0.5 µM.

As to `CO[C@]1(c2ccc3nccc(N[C@H](C)c4cccc(C(F)F)c4F)c3c2)CCN(C(C)=O)C1` [Compound 76, 1-((S)-3-(4-(((R)-1-(3-(difluoromethyl)-2-fluorophenyl)ethyl)amino)quinolin-6-yl)-3-methoxypyrrolidin-1-yl)ethan-1-one], the IC50 is at most 0.15 µM in assay [1] and at most 0.01 µM at SOS1/KRAS-G12D. Also, the GI50 in the assay with K562 cells was at most 0.1 µM.

Turning to `COC1(c2ccc3nccc(N[C@H](C)c4cccc(C(F)(F)F)c4C)c3c2)CCN(C(=O)CC#N)CC1` [Compound 77, (R)-3-(4-methoxy-4-(4-((1-(2-methyl-3-(trifluoromethyl)phenyl)ethyl)amino)quinolin-6-yl)piperidin-1-yl)-3-oxopropanenitrile], the values for the IC50 (in assay [1]; on SOS1/KRAS-G12D) were 0.15 to 0.5 µM and 0.01 to 0.1 µM, respectively. The compound further showed a GI50 with K562 cells above 0.5 µM.

As to `COC1(c2ccc3nccc(N[C@H](C)c4cccc(C(F)(F)F)c4C)c3c2)CCN(C(=O)CF)CC1` [Compound 78, (R)-2-fluoro-1-(4-methoxy-4-(4-((1-(2-methyl-3-(trifluoromethyl)phenyl)ethyl)amino)quinolin-6-yl)piperidin-1-yl)ethan-1-one], the IC50 in assay [1] was 0.15 to 0.5 µM; on SOS1/KRAS-G12D it was at most 0.01 µM. The compound also had a GI50 in the assay on K562 cells of at most 0.1 µM.

On to `COC1(c2ccc3nccc(N[C@H](C)c4cccc(C(F)(F)F)c4C)c3c2)CCN(C(C)=O)CC1` [Compound 79, (R)-1-(4-methoxy-4-(4-((1-(2-methyl-3-(trifluoromethyl)phenyl)ethyl)amino)quinolin-6-yl)piperidin-1-yl)ethan-1-one], for which the IC50 in assay [1] lay within 0.15 to 0.5 µM; at SOS1/KRAS-G12D, 0.01 to 0.1 µM. In the assay on K562 cells, this compound came in with a GI50 of 0.1 to 0.5 µM.

On to `COC1(c2ccc3nccc(N[C@H](C)c4cccc(C(F)(F)F)c4C)c3c2)CCN(C(=O)C(C)C)CC1` [Compound 80, (R)-1-(4-methoxy-4-(4-((1-(2-methyl-3-(trifluoromethyl)phenyl)ethyl)amino)quinolin-6-yl)piperidin-1-yl)-2-methylpropan-1-one], for which the IC50 was above 0.5 µM in assay [1] and 0.01 to 0.1 µM on SOS1/KRAS-G12D. Moreover, the GI50 with K562 cells is 0.1 to 0.5 µM.

`CC(C)C(=O)N1CCC(F)(c2ccc3nccc(N[C@H](C)c4cccc(C(F)F)c4F)c3c2)CC1` [Compound 81, (R)-1-(4-(4-((1-(3-(difluoromethyl)-2-fluorophenyl)ethyl)amino)quinolin-6-yl)-4-fluoropiperidin-1-yl)-2-methylpropan-1-one]: the IC50 is at most 0.15 µM in assay [1] and at most 0.01 µM at SOS1/KRAS-G12D. Besides, in the assay on K562 cells, the GI50 was at most 0.1 µM.

For `Cc1c([C@@H](C)Nc2ccnc3ccc(C4(F)CCN(C(=O)C(C)C)CC4)cc23)cccc1C(F)(F)F` [Compound 82, (R)-1-(4-fluoro-4-(4-((1-(2-methyl-3-(trifluoromethyl)phenyl)ethyl)amino)quinolin-6-yl)piperidin-1-yl)-2-methylpropan-1-one], the IC50 in assay [1] is above 0.5 µM; at SOS1/KRAS-G12D it was above 0.1 µM. For the same compound, the concentration for 50% growth inhibition (GI50) in the assay on K562 cells fell in the range of 0.1 to 0.5 µM.

With `CC(=O)N1CCC(O)(c2ccc3nccc(N[C@H](C)c4cccc(C(F)F)c4F)c3c2)C1` (stereo partly drawn) [Compound 83, 1-(3-(4-(((R)-1-(3-(difluoromethyl)-2-fluorophenyl)ethyl)amino)quinolin-6-yl)-3-hydroxypyrrolidin-1-yl)ethan-1-one], the IC50 in assay [1] was 0.15 to 0.5 µM; at SOS1/KRAS-G12D, at most 0.01 µM. The GI50 in the assay with K562 cells is at most 0.1 µM.

In the case of `CC(=O)N1CCC(F)(c2ccc3nccc(NC(C)c4cccc(C(F)F)c4F)c3c2)CC1` (stereo not drawn) [Compound 84, 1-(4-(4-((1-(3-(difluoromethyl)-2-fluorophenyl)ethyl)amino)quinolin-6-yl)-4-fluoropiperidin-1-yl)ethan-1-one], the IC50 in assay [1] was 0.15 to 0.5 µM; at SOS1/KRAS-G12D it was at most 0.01 µM. The 50% growth inhibitory concentration (GI50) in the assay on K562 cells was at most 0.1 µM.

Take `CC(=O)N1CC[C@](F)(c2ccc3nccc(N[C@H](C)c4cccc(C(F)F)c4F)c3c2)C1` [Compound 85, 1-((S)-3-(4-(((R)-1-(3-(difluoromethyl)-2-fluorophenyl)ethyl)amino)quinolin-6-yl)-3-fluoropyrrolidin-1-yl)ethan-1-one]: the IC50 in assay [1] is above 0.5 µM; at SOS1/KRAS-G12D, at most 0.01 µM. The compound further yielded a GI50 in the assay on K562 cells of 0.1 to 0.5 µM.

`CO[C@@]1(c2ccc3nccc(N[C@H](C)c4cccc(C#N)c4C)c3c2)CCN(C(C)=O)C1` [Compound 87, 3-((R)-1-((6-((R)-1-acetyl-3-methoxypyrrolidin-3-yl)quinolin-4-yl)amino)ethyl)-2-methylbenzonitrile]: the figures for the IC50 (in assay [1]; at SOS1/KRAS-G12D) were above 0.5 µM and above 0.1 µM, respectively. Besides, in the assay on K562 cells, the 50% growth inhibitory concentration (GI50) was above 0.5 µM.

`CO[C@]1(c2ccc3nccc(N[C@H](C)c4cccc(C#N)c4C)c3c2)CCN(C(C)=O)C1` [Compound 88, 3-((R)-1-((6-((S)-1-acetyl-3-methoxypyrrolidin-3-yl)quinolin-4-yl)amino)ethyl)-2-methylbenzonitrile]: the IC50 is at most 0.15 µM in assay [1] and 0.01 to 0.1 µM on SOS1/KRAS-G12D. Further, in the assay with K562 cells, the GI50 lay within 0.1 to 0.5 µM.

Regarding `COC(=O)N1CC[C@](OC)(c2ccc3nccc(N[C@H](C)c4cccc(C(F)F)c4F)c3c2)C1` [Compound 89, methyl (S)-3-(4-(((R)-1-(3-(difluoromethyl)-2-fluorophenyl)ethyl)amino)quinolin-6-yl)-3-methoxypyrrolidine-1-carboxylate], the values for the IC50 (in assay [1]; at SOS1/KRAS-G12D) were above 0.5 µM and at most 0.01 µM, respectively. Also, in the assay on K562 cells, the GI50 is at most 0.1 µM.

In the case of `COC(=O)N1CC[C@@](OC)(c2ccc3nccc(N[C@H](C)c4cccc(C(F)F)c4F)c3c2)C1` [Compound 90, methyl (R)-3-(4-(((R)-1-(3-(difluoromethyl)-2-fluorophenyl)ethyl)amino)quinolin-6-yl)-3-methoxypyrrolidine-1-carboxylate], the values for the IC50 (in assay [1]; at SOS1/KRAS-G12D) were above 0.5 µM and 0.01 to 0.1 µM, respectively. Moreover, the GI50 with K562 cells fell in the range of 0.1 to 0.5 µM.

For `CO[C@@]1(c2ccc3nccc(N[C@H](C)c4cccc(C(F)F)c4F)c3c2)CCN(C(=O)C(C)C)C1` [Compound 91, 1-((R)-3-(4-(((R)-1-(3-(difluoromethyl)-2-fluorophenyl)ethyl)amino)quinolin-6-yl)-3-methoxypyrrolidin-1-yl)-2-methylpropan-1-one], the figures for the IC50 (in assay [1]; at SOS1/KRAS-G12D) were above 0.5 µM and at most 0.01 µM, respectively. Further, the GI50 in the assay on K562 cells lay in the range of 0.1 to 0.5 µM.

As to `CO[C@]1(c2ccc3nccc(N[C@H](C)c4cccc(C(F)F)c4F)c3c2)CCN(C(=O)C(C)C)C1` [Compound 92, 1-((S)-3-(4-(((R)-1-(3-(difluoromethyl)-2-fluorophenyl)ethyl)amino)quinolin-6-yl)-3-methoxypyrrolidin-1-yl)-2-methylpropan-1-one], the IC50 in assay [1] is at most 0.15 µM; on SOS1/KRAS-G12D, at most 0.01 µM. Also, the GI50 with K562 cells is at most 0.1 µM.

On to `CO[C@@]1(c2ccc3nccc(N[C@H](C)c4cccc(C(F)F)c4F)c3c2)CCN(C(=O)C2CC2)C1` [Compound 95, cyclopropyl((R)-3-(4-(((R)-1-(3-(difluoromethyl)-2-fluorophenyl)ethyl)amino)quinolin-6-yl)-3-methoxypyrrolidin-1-yl)methanone], for which the IC50 was above 0.5 µM in assay [1] and at most 0.01 µM on SOS1/KRAS-G12D. Also, the GI50 in the assay on K562 cells fell in the range of 0.1 to 0.5 µM.

The record behind these values is patent US20240208909A1, “SUBSTITUTED QUINOLINE DERIVATIVES HAVING SOS1 INHIBITION ACTIVITIES AND USES THEREOF” (Accutar Biotechnology Inc., priority 2022, published 2024).
